Measurements: PubChem BioAssay (NCI)
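48-hour exposure; five concentrations; linearly interpolated endpoints. TGI is the concentration that stops growth completely.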

Experiments:
Experiment in all cases: growth of human tumour cells (NCI), 48 h
NCI-H522 lung = system: NCI-H522 lung
A549 NSCLC = system: A549 NSCLC
SF-539 CNS = system: SF-539 CNS
SK-MEL-2 melanoma = system: SK-MEL-2 melanoma
RXF 393 renal = system: RXF 393 renal
KM12 colon = system: KM12 colon
UO-31 renal = system: UO-31 renal
HS 578T breast = system: HS 578T breast
T-47D breast = system: T-47D breast
SW-620 colon = system: SW-620 colon
MDA-MB-435 = system: MDA-MB-435
TK-10 renal = system: TK-10 renal
SN12C renal = system: SN12C renal
U251 CNS = system: U251 CNS
M14 melanoma = system: M14 melanoma
MCF7 breast = system: MCF7 breast
NCI-H23 lung = system: NCI-H23 lung
UACC-257 melanoma = system: UACC-257 melanoma
SK-MEL-5 melanoma = system: SK-MEL-5 melanoma
SK-MEL-28 melanoma = system: SK-MEL-28 melanoma
HCT-116 colon = system: HCT-116 colon
SF-268 CNS = system: SF-268 CNS
RPMI-8226 leukemia = system: RPMI-8226 leukemia
SNB-75 CNS = system: SNB-75 CNS
OVCAR-5 ovarian = system: OVCAR-5 ovarian
UACC-62 melanoma = system: UACC-62 melanoma
NCI/ADR-RES ovarian = system: NCI/ADR-RES ovarian
OVCAR-3 ovarian = system: OVCAR-3 ovarian
NCI-H460 lung = system: NCI-H460 lung
HOP-92 NSCLC = system: HOP-92 NSCLC
EKVX NSCLC = system: EKVX NSCLC
K-562 leukemia = system: K-562 leukemia
COLO 205 colon = system: COLO 205 colon
LOX IMVI melanoma = system: LOX IMVI melanoma
A498 renal = system: A498 renal
PC-3 prostate = system: PC-3 prostate
CAKI-1 renal = system: CAKI-1 renal
ACHN renal = system: ACHN renal
HCT-15 colon = system: HCT-15 colon
SR leukemia = system: SR leukemia
MOLT-4 leukemia = system: MOLT-4 leukemia
BT-549 breast = system: BT-549 breast
MALME-3M melanoma = system: MALME-3M melanoma
NCI-H226 lung = system: NCI-H226 lung
DU-145 prostate = system: DU-145 prostate
IGROV1 ovarian = system: IGROV1 ovarian
786-0 renal = system: 786-0 renal
HT29 colon = system: HT29 colon
MDA-MB-231 breast = system: MDA-MB-231 breast
OVCAR-8 ovarian = system: OVCAR-8 ovarian
SF-295 CNS = system: SF-295 CNS
CCRF-CEM leukemia = system: CCRF-CEM leukemia
MDA-N = system: MDA-N
HCC-2998 colon = system: HCC-2998 colon
SNB-19 CNS = system: SNB-19 CNS
HL-60(TB) leukemia = system: HL-60(TB) leukemia
HOP-62 NSCLC = system: HOP-62 NSCLC
OVCAR-4 ovarian = system: OVCAR-4 ovarian
SK-OV-3 ovarian = system: SK-OV-3 ovarian

CN(C)Cc1cc(N=Nc2ccccc2)ccc1O
TGI (NCI-H522 lung): 73.9 µM
TGI (A549 NSCLC): > 100 µM
TGI (SF-539 CNS): > 100 µM
TGI (SK-MEL-2 melanoma): > 100 µM
TGI (RXF 393 renal): 69.2 µM
TGI (KM12 colon): > 100 µM
TGI (UO-31 renal): 89.6 µM
TGI (HS 578T breast): > 100 µM
TGI (T-47D breast): > 100 µM
TGI (SW-620 colon): > 100 µM
TGI (MDA-MB-435): > 100 µM
TGI (TK-10 renal): > 100 µM
TGI (SN12C renal): > 100 µM
TGI (U251 CNS): > 100 µM
TGI (M14 melanoma): > 100 µM
TGI (MCF7 breast): > 100 µM
TGI (NCI-H23 lung): > 100 µM
TGI (UACC-257 melanoma): 76.9 µM
TGI (SK-MEL-5 melanoma): 29.4 µM
TGI (SK-MEL-28 melanoma): > 100 µM
TGI (HCT-116 colon): > 100 µM
TGI (SF-268 CNS): > 100 µM
TGI (RPMI-8226 leukemia): > 100 µM
TGI (SNB-75 CNS): > 100 µM
TGI (OVCAR-5 ovarian): > 100 µM
TGI (UACC-62 melanoma): 69.2 µM
TGI (NCI/ADR-RES ovarian): > 100 µM
TGI (OVCAR-3 ovarian): > 100 µM
TGI (NCI-H460 lung): > 100 µM
TGI (HOP-92 NSCLC): > 100 µM
TGI (EKVX NSCLC): > 100 µM
TGI (K-562 leukemia): 58.1 µM
TGI (COLO 205 colon): > 100 µM
TGI (LOX IMVI melanoma): > 100 µM
TGI (A498 renal): 79.1 µM
TGI (PC-3 prostate): > 100 µM
TGI (CAKI-1 renal): > 100 µM
TGI (ACHN renal): > 100 µM
TGI (HCT-15 colon): > 100 µM
TGI (SR leukemia): > 100 µM
TGI (MOLT-4 leukemia): > 100 µM
TGI (BT-549 breast): > 100 µM
TGI (MALME-3M melanoma): > 100 µM
TGI (NCI-H226 lung): > 100 µM
TGI (DU-145 prostate): > 100 µM
TGI (IGROV1 ovarian): > 100 µM
TGI (786-0 renal): > 100 µM
TGI (HT29 colon): > 100 µM
TGI (MDA-MB-231 breast): > 100 µM
TGI (OVCAR-8 ovarian): > 100 µM
TGI (SF-295 CNS): > 100 µM
TGI (CCRF-CEM leukemia): > 100 µM
TGI (MDA-N): > 100 µM
TGI (HCC-2998 colon): > 100 µM
TGI (SNB-19 CNS): > 100 µM
TGI (HL-60(TB) leukemia): > 100 µM
TGI (HOP-62 NSCLC): > 100 µM

O=C(Oc1ccc(S(=O)(=O)F)cc1F)c1ccccc1Cl
TGI (NCI-H522 lung): 42 µM
TGI (A549 NSCLC): > 100 µM
TGI (SF-539 CNS): 62.1 µM
TGI (SK-MEL-2 melanoma): > 100 µM
TGI (RXF 393 renal): 64.5 µM
TGI (KM12 colon): 60.9 µM
TGI (UO-31 renal): 40 µM
TGI (HS 578T breast): 65.2 µM
TGI (T-47D breast): 84.3 µM
TGI (OVCAR-4 ovarian): 94.5 µM
TGI (SW-620 colon): > 100 µM
TGI (MDA-MB-435): 74.6 µM
TGI (TK-10 renal): > 100 µM
TGI (SN12C renal): > 100 µM
TGI (U251 CNS): > 100 µM
TGI (M14 melanoma): > 100 µM
TGI (MCF7 breast): 83.9 µM
TGI (NCI-H23 lung): 53.9 µM
TGI (UACC-257 melanoma): 78.8 µM
TGI (SK-MEL-5 melanoma): 31.1 µM
TGI (SK-MEL-28 melanoma): > 100 µM
TGI (HCT-116 colon): > 100 µM
TGI (SF-268 CNS): > 100 µM
TGI (RPMI-8226 leukemia): 45.6 µM
TGI (SNB-75 CNS): 74.2 µM
TGI (OVCAR-5 ovarian): > 100 µM
TGI (UACC-62 melanoma): > 100 µM
TGI (NCI/ADR-RES ovarian): > 100 µM
TGI (OVCAR-3 ovarian): 75.6 µM
TGI (NCI-H460 lung): 70.5 µM
TGI (HOP-92 NSCLC): 65.1 µM
TGI (EKVX NSCLC): 72.3 µM
TGI (K-562 leukemia): > 100 µM
TGI (COLO 205 colon): 44.6 µM
TGI (LOX IMVI melanoma): > 100 µM
TGI (A498 renal): > 100 µM
TGI (PC-3 prostate): > 100 µM
TGI (CAKI-1 renal): > 100 µM
TGI (ACHN renal): > 100 µM
TGI (HCT-15 colon): > 100 µM
TGI (SR leukemia): 55.8 µM
TGI (BT-549 breast): > 100 µM
TGI (MALME-3M melanoma): 86.4 µM
TGI (NCI-H226 lung): > 100 µM
TGI (DU-145 prostate): > 100 µM
TGI (IGROV1 ovarian): > 100 µM
TGI (SK-OV-3 ovarian): > 100 µM
TGI (786-0 renal): > 100 µM
TGI (HT29 colon): 72.9 µM
TGI (MDA-MB-231 breast): 58 µM
TGI (OVCAR-8 ovarian): > 100 µM
TGI (SF-295 CNS): 89.4 µM
TGI (MDA-N): > 100 µM
TGI (HCC-2998 colon): > 100 µM
TGI (SNB-19 CNS): 87.2 µM
TGI (HL-60(TB) leukemia): > 100 µM
TGI (HOP-62 NSCLC): > 100 µM

S=C(S)N1CCN(c2cccc(Cl)c2)CC1
TGI (NCI-H522 lung): > 100 µM
TGI (A549 NSCLC): > 100 µM
TGI (SF-539 CNS): > 100 µM
TGI (SK-MEL-2 melanoma): > 100 µM
TGI (RXF 393 renal): > 100 µM
TGI (KM12 colon): > 100 µM
TGI (UO-31 renal): > 100 µM
TGI (HS 578T breast): > 100 µM
TGI (T-47D breast): > 100 µM
TGI (SW-620 colon): > 100 µM
TGI (MDA-MB-435): > 100 µM
TGI (TK-10 renal): > 100 µM
TGI (SN12C renal): > 100 µM
TGI (U251 CNS): > 100 µM
TGI (M14 melanoma): > 100 µM
TGI (MCF7 breast): > 100 µM
TGI (NCI-H23 lung): > 100 µM
TGI (UACC-257 melanoma): > 100 µM
TGI (SK-MEL-5 melanoma): > 100 µM
TGI (SK-MEL-28 melanoma): > 100 µM
TGI (HCT-116 colon): > 100 µM
TGI (SF-268 CNS): > 100 µM
TGI (RPMI-8226 leukemia): > 100 µM
TGI (SNB-75 CNS): > 100 µM
TGI (OVCAR-5 ovarian): > 100 µM
TGI (UACC-62 melanoma): > 100 µM
TGI (NCI/ADR-RES ovarian): > 100 µM
TGI (OVCAR-3 ovarian): > 100 µM
TGI (HOP-92 NSCLC): > 100 µM
TGI (EKVX NSCLC): > 100 µM
TGI (K-562 leukemia): > 100 µM
TGI (COLO 205 colon): > 100 µM
TGI (LOX IMVI melanoma): > 100 µM
TGI (A498 renal): > 100 µM
TGI (PC-3 prostate): > 100 µM
TGI (CAKI-1 renal): > 100 µM
TGI (ACHN renal): > 100 µM
TGI (HCT-15 colon): > 100 µM
TGI (SR leukemia): > 100 µM
TGI (MOLT-4 leukemia): > 100 µM
TGI (BT-549 breast): > 100 µM
TGI (MALME-3M melanoma): > 100 µM
TGI (DU-145 prostate): > 100 µM
TGI (IGROV1 ovarian): > 100 µM
TGI (786-0 renal): > 100 µM
TGI (HT29 colon): > 100 µM
TGI (MDA-MB-231 breast): > 100 µM
TGI (OVCAR-8 ovarian): > 100 µM
TGI (SF-295 CNS): > 100 µM
TGI (CCRF-CEM leukemia): > 100 µM
TGI (MDA-N): > 100 µM
TGI (HCC-2998 colon): > 100 µM
TGI (SNB-19 CNS): > 100 µM
TGI (HL-60(TB) leukemia): > 100 µM
TGI (HOP-62 NSCLC): > 100 µM
